In ChEMBL document CHEMBL2424544, “Inhibitors of switch kinase 'spleen tyrosine kinase' in inflammation and immune-mediated disorders: a review” (Eur J Med Chem, 2013):

Target: Tyrosine-protein kinase SYK (Homo sapiens, UniProt P43405)
Experiment: Inhibition of spleen tyrosine kinase (unknown origin); call rule not given here

SMILES | IC50 (read-out: IC50) [µM] | IC50
COc1ccc2c(c1)c(/C=C1\C(=O)Nc3ccc(S(=O)(=O)N(C)C)cc31)cn2C | – | Not Active
CN(C)CCN(C)c1ncc(C(N)=O)c(Nc2cccc(C(F)(F)F)c2)n1 | > 10 | –

Further lines, results first:

IC50 (read-out: IC50) [µM] | IC50 | SMILES
> 10 | – | CNc1nc(NCCN)ncc1C(N)=O
> 10 | – | CNC(=O)c1cnc(NCCN)nc1Nc1cccc(C(F)(F)F)c1
> 10 | – | CN(C)C(=O)c1cnc(NCCN)nc1Nc1cccc(C(F)(F)F)c1
